The values that follow come from patent US20220226272A1, “DIETARY BUTYRATE AND ITS USES” (SOCIETE DES PRODUITS NESTLE S.A., priority 2019, published 2022).

In series [1] the target is T1, porcine pancreatic lipase (PPL) (Sus scrofa, UniProt P00591).
T1 construct: by porcine pancreatic lipase (from pancreatin); purchased Sigma-Aldrich P7585; host or cells: porcine pancreas extract (pancreatin)
T1 sequence (P00591 1-450): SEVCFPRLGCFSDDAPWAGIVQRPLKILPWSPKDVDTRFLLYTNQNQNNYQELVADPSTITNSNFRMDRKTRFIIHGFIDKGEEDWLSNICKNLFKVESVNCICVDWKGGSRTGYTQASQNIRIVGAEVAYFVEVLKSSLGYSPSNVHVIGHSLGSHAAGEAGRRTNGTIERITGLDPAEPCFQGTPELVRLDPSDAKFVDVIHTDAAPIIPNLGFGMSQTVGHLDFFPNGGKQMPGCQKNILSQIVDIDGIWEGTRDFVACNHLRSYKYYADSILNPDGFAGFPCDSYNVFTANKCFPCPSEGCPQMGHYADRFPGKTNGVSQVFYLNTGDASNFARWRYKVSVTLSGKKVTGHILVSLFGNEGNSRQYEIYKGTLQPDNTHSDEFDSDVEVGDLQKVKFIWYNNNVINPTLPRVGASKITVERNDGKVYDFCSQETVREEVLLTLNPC
T1 sequence (P02703 23-112 partner): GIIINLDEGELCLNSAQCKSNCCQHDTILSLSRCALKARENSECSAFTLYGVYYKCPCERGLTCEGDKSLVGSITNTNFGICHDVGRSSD
Put plainly: In vitro digestion in simulated intestinal fluid (SIF), pH-stat. In kind it is in vitro ADME. The following applies: SIF alone; 200 mg fat emulsion, pH 6.8, 37° C.
Procedure: (§1) The lipid emulsion (2 mL) containing 200 mg of fat was subjected to gastrointestinal in vitro lipolysis. […] For gastric digestion, the sample was incubated for 90 minutes with 8.5 mL of simulated gastric fluid (SGF), which consisted of 150 mM NaCl, 450 U/mL pepsin, 18 U/mL rabbit gastric lipase at 37° C. and a pH of 5.5.
The intestinal digestion step was performed in the pH stat where the pH was kept constant at 6.8 by addition of NaOH (0.05 M). […] The intestinal digestion step starts when the temperature reaches 37±0.5° C. The pH was adjusted to pH 6.8 and after incubation of two minutes at this pH and temperature, a pancreatin solution (5 mM tris, 150 mM NaCl at pH 6.8) was added. […] During the intestinal phase of digestion, the kinetics of digestion were followed using a pH-stat (TIM856, Radiometer) technique and expressed as titratable acid (rather than fatty acid) that was calculated by the equation: […]
(§2) Since the digestion of dietary lipids involves lipases of both gastric and intestinal origin, lipid digestibility was assessed using two digestion models i) simulated intestinal fluid (SIF) with porcine pancreatic lipase (PPL) and ii) sequential digestion in simulated gastric fluid (SGF) with rabbit gastric lipase (RGL) followed by simulated intestinal fluid (SIF) with porcine pancreatic lipase (PPL).

The subject of series [2] is rabbit gastric lipase (RGL) followed by porcine pancreatic lipase (PPL). Put plainly: Sequential in vitro digestion SGF followed by SIF, pH-stat. In kind it is in vitro ADME.
Procedure: as §1
The intestinal digestion step was performed in the pH stat where the pH was kept constant at 6.8 by addition of NaOH (0.05 M). […] The intestinal digestion step starts when the temperature reaches 37±0.5° C. The pH was adjusted to pH 6.8 and after incubation of two minutes at this pH and temperature, a pancreatin solution (5 mM tris, 150 mM NaCl at pH 6.8) was added. The final composition of the intestinal fluid was 10 mM CaCl2, 12 mM mixed bile salts, 0.75 mM phospholipid, 150 mM NaCl and 4 mM tris(hydroxymethyl)aminomethane buffer. The intestinal digestion step was carried out for 3 hours in a titration manager from Radiometer. During the intestinal phase of digestion, the kinetics of digestion were followed using a pH-stat (TIM856, Radiometer) technique and expressed as titratable acid (rather than fatty acid) that was calculated by the equation:
TA: Total titratable acid released, mmol; VNaOH: volume of NaOH used to titrate the released acid in 3 h, m L.
as §2

For the molecule `CCCC(=O)OCC(COC(=O)CCC)OC(=O)CCC` [tributyrin], the “initial rate of lipolysis” value in series [1] is 223 ± 59 µmol/min. Further, the “initial lipolysis rate in SIF compartment” value in series [2] (SGF-SIF sequential digestion, 200 mg fat emulsion) was determined as 44.1 ± 8.8 µmol/min. Further, in series [2] (gastric compartment of the model), the “hydrolysis in the stomach (gastric lipolysis), in words” value was “extensive hydrolysis”. In addition, in series [2] (indicated by decreased total fatty acid release in SIF after RGL pre-exposure), the “lipolysis by gastric lipase” value is about 60%.
